Data: paper PMC9856672, “SGC-CAMKK2-1: A Chemical Probe for CAMKK2” (Cells, 2023)

Tests used:
WEE1 = target: T1, WEE1 (Homo sapiens, UniProt P30291); assay: KINOMEscan at 1 μM, WEE1; type: binding; conditions: 1000 nM, read-out: Percent Control
T1 construct: purchased Eurofins DiscoverX KINOMEscan
Text: (§1) Supplement cells-12-00287-s001.zip/File S2. KinomeScan data for the CAMKK2 probe and negative control.xlsx, sheet "SGC-CAMKK2-1N" | column: Percent Control

AURKA = target: T2, AURKA (Homo sapiens, UniProt O14965); assay: KINOMEscan at 1 μM, AURKA; type: binding; conditions: 1000 nM, read-out: Percent Control
T2 construct: purchased Eurofins DiscoverX KINOMEscan
Text: as §1

LCK = target: T3, LCK (Homo sapiens, UniProt P06239); assay: KINOMEscan binding assay at 1 μM, LCK; conditions: Compound Concentration 1000 nM; read-out: Percent Control
T3 construct: purchased Eurofins DiscoverX KINOMEscan
Text: as §1

VPS34 = target: T4, VPS34 (Homo sapiens, UniProt Q8NEB9); assay: KINOMEscan at 1 μM, VPS34; type: binding; conditions: 1000 nM, read-out: Percent Control
T4 construct: purchased Eurofins DiscoverX KINOMEscan
Text: as §1

PHKG2 = target: T5, PHKG2 (Homo sapiens, UniProt P15735); assay: KINOMEscan at 1 μM, PHKG2; type: binding; conditions: 1000 nM, read-out: Percent Control
T5 construct: purchased Eurofins DiscoverX KINOMEscan
Text: as §1

CSF1R-autoinhibited = target: T6, CSF1R-autoinhibited (Homo sapiens, UniProt P07333); assay: KINOMEscan at 1 μM, CSF1R-autoinhibited; type: binding; conditions: 1000 nM, read-out: Percent Control
T6 construct: purchased Eurofins DiscoverX KINOMEscan
Text: as §1

p38-beta = target: T7, p38-beta (Homo sapiens, UniProt Q15759); assay: KINOMEscan binding assay at 1 μM, p38-beta; conditions: Compound Concentration 1000 nM; read-out: Percent Control
T7 construct: purchased Eurofins DiscoverX KINOMEscan
Text: as §1

[1] = target: T8, RSK4(Kin.Dom.1-N-terminal) (Homo sapiens, UniProt Q9UK32); assay: KINOMEscan at 1 μM, RSK4(Kin.Dom.1-N-terminal); type: binding; conditions: 1000 nM, read-out: Percent Control
T8 construct: RSK4(Kin.Dom.1-N-terminal); purchased Eurofins DiscoverX KINOMEscan
Text: as §1

CDK3 = target: T9, CDK3 (Homo sapiens, UniProt Q00526); assay: KINOMEscan at 1 μM, CDK3; type: binding; conditions: 1000 nM, read-out: Percent Control
T9 construct: purchased Eurofins DiscoverX KINOMEscan
Text: as §1

[2] = target: T10, RPS6KA4(Kin.Dom.2-C-terminal) (Homo sapiens, UniProt O75676); assay: KINOMEscan at 1 μM, RPS6KA4(Kin.Dom.2-C-terminal); type: binding; conditions: 1000 nM, read-out: Percent Control
T10 construct: RPS6KA4(Kin.Dom.2-C-terminal); purchased Eurofins DiscoverX KINOMEscan
Text: as §1

JNK1 = target: T11, JNK1 (Homo sapiens, UniProt P45983); assay: KINOMEscan at 1 μM, JNK1; type: binding; conditions: 1000 nM, read-out: Percent Control
T11 construct: purchased Eurofins DiscoverX KINOMEscan
Text: as §1

[3] = target: T12, JAK2(JH1domain-catalytic) (Homo sapiens, UniProt O60674); assay: KINOMEscan at 1 μM, JAK2(JH1domain-catalytic); type: binding; conditions: 1000 nM, read-out: Percent Control
T12 construct: JAK2(JH1domain-catalytic); purchased Eurofins DiscoverX KINOMEscan
Text: as §1

CSK = target: T13, CSK (Homo sapiens, UniProt P41240); assay: KINOMEscan at 1 μM, CSK; type: binding; conditions: 1000 nM, read-out: Percent Control
T13 construct: purchased Eurofins DiscoverX KINOMEscan
Text: as §1

JNK3 = target: T14, JNK3 (Homo sapiens, UniProt P53779); assay: KINOMEscan binding assay at 1 μM, JNK3; conditions: Compound Concentration 1000 nM; read-out: Percent Control
T14 construct: purchased Eurofins DiscoverX KINOMEscan
Text: as §1

ERBB3 = target: T15, ERBB3 (Homo sapiens, UniProt P21860); assay: KINOMEscan 1 μM, ERBB3; type: binding; conditions: 1000 nM; Entrez ERBB3; read-out: Percent Control
T15 construct: purchased Eurofins DiscoverX KINOMEscan
Text: (§2) Supplement cells-12-00287-s001.zip/File S2. KinomeScan data for the CAMKK2 probe and negative control.xlsx, sheet "SGC-CAMKK2-1" | column: Percent Control

PLK4 = target: T16, PLK4 (Homo sapiens, UniProt O00444); assay: DiscoverX KINOMEscan binding assay at 1 μM, PLK4; conditions: Compound Concentration 1000 nM, read-out: Percent Control
T16 construct: purchased Eurofins DiscoverX KINOMEscan
Text: as §2

TRKB = target: T17, TRKB (Homo sapiens, UniProt Q16620); assay: DiscoverX KINOMEscan binding assay at 1 μM, TRKB; conditions: TRKB (NTRK2); Compound Concentration 1000 nM; read-out: Percent Control
T17 construct: purchased Eurofins DiscoverX KINOMEscan
Text: as §2

PRKD1 = target: T18, PRKD1 (Homo sapiens, UniProt Q15139); assay: DiscoverX KINOMEscan binding assay at 1 μM, PRKD1; conditions: Compound Concentration 1000 nM, read-out: Percent Control
T18 construct: purchased Eurofins DiscoverX KINOMEscan
Text: as §2

CHEK2 = target: T19, CHEK2 (Homo sapiens, UniProt O96017); assay: KINOMEscan 1 μM, CHEK2; type: binding; conditions: 1000 nM; Entrez CHEK2; read-out: Percent Control
T19 construct: purchased Eurofins DiscoverX KINOMEscan
Text: as §2

SIK = target: T20, SIK (Homo sapiens, UniProt P57059); assay: DiscoverX KINOMEscan binding assay at 1 μM, SIK; conditions: SIK (SIK1); Compound Concentration 1000 nM; read-out: Percent Control
T20 construct: purchased Eurofins DiscoverX KINOMEscan
Text: as §2

MST3 = target: T21, MST3 (Homo sapiens, UniProt Q9Y6E0); assay: KINOMEscan 1 μM, MST3; type: binding; conditions: 1000 nM; Entrez STK24; read-out: Percent Control
T21 construct: purchased Eurofins DiscoverX KINOMEscan
Text: as §2

S6K1 = target: T22, S6K1 (Homo sapiens, UniProt P23443); assay: DiscoverX KINOMEscan binding assay at 1 μM, S6K1; conditions: S6K1 (RPS6KB1); Compound Concentration 1000 nM; read-out: Percent Control
T22 construct: purchased Eurofins DiscoverX KINOMEscan
Text: as §2

FGFR1 = target: T23, FGFR1 (Homo sapiens, UniProt P11362); assay: KINOMEscan 1 μM, FGFR1; type: binding; conditions: 1000 nM; Entrez FGFR1; read-out: Percent Control
T23 construct: purchased Eurofins DiscoverX KINOMEscan
Text: as §2

PDGFRB = target: T24, PDGFRB (Homo sapiens, UniProt P09619); assay: DiscoverX KINOMEscan binding assay at 1 μM, PDGFRB; conditions: Compound Concentration 1000 nM, read-out: Percent Control
T24 construct: purchased Eurofins DiscoverX KINOMEscan
Text: as §2

ALK(C1156Y) = target: T25, ALK(C1156Y) (Homo sapiens, UniProt Q9UM73, C1156Y); assay: KINOMEscan 1 μM, ALK(C1156Y); type: binding; conditions: 1000 nM; Entrez ALK; read-out: Percent Control
T25 construct: purchased Eurofins DiscoverX KINOMEscan
Text: as §2

AAK1 = target: T26, AAK1 (Homo sapiens, UniProt Q2M2I8); assay: KINOMEscan 1 μM, AAK1; type: binding; conditions: 1000 nM; Entrez AAK1; read-out: Percent Control
T26 construct: purchased Eurofins DiscoverX KINOMEscan
Text: as §2

NDR2 = target: T27, NDR2 (Homo sapiens, UniProt Q9Y2H1); assay: KINOMEscan 1 μM, NDR2; type: binding; conditions: 1000 nM; Entrez STK38L; read-out: Percent Control
T27 construct: purchased Eurofins DiscoverX KINOMEscan
Text: as §2

GRK4 = target: T28, GRK4 (Homo sapiens, UniProt P32298); assay: KINOMEscan 1 μM, GRK4; type: binding; conditions: 1000 nM; Entrez GRK4; read-out: Percent Control
T28 construct: purchased Eurofins DiscoverX KINOMEscan
Text: as §2

HASPIN = target: T29, HASPIN (Homo sapiens, UniProt Q8TF76); assay: KINOMEscan 1 μM, HASPIN; type: binding; conditions: 1000 nM; Entrez GSG2; read-out: Percent Control
T29 construct: purchased Eurofins DiscoverX KINOMEscan
Text: as §2

TLK2 = target: T30, TLK2 (Homo sapiens, UniProt Q86UE8); assay: DiscoverX KINOMEscan binding assay at 1 μM, TLK2; conditions: Compound Concentration 1000 nM, read-out: Percent Control
T30 construct: purchased Eurofins DiscoverX KINOMEscan
Text: as §2

CAMK1D = target: T31, CAMK1D (Homo sapiens, UniProt Q8IU85); assay: KINOMEscan 1 μM, CAMK1D; type: binding; conditions: 1000 nM; Entrez CAMK1D; read-out: Percent Control
T31 construct: purchased Eurofins DiscoverX KINOMEscan
Text: as §2

HIPK2 = target: T32, HIPK2 (Homo sapiens, UniProt Q9H2X6); assay: KINOMEscan 1 μM, HIPK2; type: binding; conditions: 1000 nM; Entrez HIPK2; read-out: Percent Control
T32 construct: purchased Eurofins DiscoverX KINOMEscan
Text: as §2

EGFR(L747-T751del,Sins) = assay: KINOMEscan 1 μM, EGFR(L747-T751del,Sins); type: binding, human; conditions: 1000 nM; Entrez EGFR
Text: as §2

T1 sequence (P30291 whole entry): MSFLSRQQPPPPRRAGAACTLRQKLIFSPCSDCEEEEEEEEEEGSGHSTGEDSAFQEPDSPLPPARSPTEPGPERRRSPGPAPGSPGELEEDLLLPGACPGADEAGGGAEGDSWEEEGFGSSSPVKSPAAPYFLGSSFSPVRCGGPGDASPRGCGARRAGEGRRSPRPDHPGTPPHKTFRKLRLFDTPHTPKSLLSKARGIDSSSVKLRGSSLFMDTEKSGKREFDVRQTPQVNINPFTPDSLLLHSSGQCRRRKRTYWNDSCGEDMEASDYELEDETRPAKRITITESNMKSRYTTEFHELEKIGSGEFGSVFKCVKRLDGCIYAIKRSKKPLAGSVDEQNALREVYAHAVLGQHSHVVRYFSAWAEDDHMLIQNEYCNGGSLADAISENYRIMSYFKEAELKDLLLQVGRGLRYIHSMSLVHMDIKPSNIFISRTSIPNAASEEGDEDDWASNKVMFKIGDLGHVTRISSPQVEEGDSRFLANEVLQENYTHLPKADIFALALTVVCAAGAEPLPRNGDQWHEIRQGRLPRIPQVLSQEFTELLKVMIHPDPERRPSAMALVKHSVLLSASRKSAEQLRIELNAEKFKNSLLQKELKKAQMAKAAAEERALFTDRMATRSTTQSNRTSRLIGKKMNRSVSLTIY
T22 sequence (P23443 whole entry): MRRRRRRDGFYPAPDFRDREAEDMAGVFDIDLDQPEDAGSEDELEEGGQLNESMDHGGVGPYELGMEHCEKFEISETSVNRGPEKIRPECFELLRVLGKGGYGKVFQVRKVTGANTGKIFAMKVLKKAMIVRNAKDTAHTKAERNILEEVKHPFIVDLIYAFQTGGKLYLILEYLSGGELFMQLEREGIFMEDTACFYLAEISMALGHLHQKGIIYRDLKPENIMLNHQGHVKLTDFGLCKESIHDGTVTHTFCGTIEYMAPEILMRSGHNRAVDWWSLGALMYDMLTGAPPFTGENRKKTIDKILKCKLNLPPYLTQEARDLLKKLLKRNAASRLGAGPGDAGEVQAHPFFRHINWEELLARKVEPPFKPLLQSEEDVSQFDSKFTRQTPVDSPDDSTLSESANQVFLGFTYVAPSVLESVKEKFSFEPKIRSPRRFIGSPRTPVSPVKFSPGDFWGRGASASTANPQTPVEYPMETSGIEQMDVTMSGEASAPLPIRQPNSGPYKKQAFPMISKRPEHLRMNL
T5 sequence (P15735 whole entry): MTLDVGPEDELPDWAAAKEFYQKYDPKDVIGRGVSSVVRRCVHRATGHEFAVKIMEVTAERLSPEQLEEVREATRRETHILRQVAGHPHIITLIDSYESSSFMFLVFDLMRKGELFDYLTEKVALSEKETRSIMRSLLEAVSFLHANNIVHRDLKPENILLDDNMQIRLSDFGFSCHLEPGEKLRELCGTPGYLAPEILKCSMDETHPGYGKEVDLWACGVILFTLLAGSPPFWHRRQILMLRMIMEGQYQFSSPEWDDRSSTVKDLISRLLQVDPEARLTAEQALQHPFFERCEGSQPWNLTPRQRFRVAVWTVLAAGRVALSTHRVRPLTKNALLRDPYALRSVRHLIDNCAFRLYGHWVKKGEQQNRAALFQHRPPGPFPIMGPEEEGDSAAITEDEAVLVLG
T30 sequence (Q86UE8 whole entry): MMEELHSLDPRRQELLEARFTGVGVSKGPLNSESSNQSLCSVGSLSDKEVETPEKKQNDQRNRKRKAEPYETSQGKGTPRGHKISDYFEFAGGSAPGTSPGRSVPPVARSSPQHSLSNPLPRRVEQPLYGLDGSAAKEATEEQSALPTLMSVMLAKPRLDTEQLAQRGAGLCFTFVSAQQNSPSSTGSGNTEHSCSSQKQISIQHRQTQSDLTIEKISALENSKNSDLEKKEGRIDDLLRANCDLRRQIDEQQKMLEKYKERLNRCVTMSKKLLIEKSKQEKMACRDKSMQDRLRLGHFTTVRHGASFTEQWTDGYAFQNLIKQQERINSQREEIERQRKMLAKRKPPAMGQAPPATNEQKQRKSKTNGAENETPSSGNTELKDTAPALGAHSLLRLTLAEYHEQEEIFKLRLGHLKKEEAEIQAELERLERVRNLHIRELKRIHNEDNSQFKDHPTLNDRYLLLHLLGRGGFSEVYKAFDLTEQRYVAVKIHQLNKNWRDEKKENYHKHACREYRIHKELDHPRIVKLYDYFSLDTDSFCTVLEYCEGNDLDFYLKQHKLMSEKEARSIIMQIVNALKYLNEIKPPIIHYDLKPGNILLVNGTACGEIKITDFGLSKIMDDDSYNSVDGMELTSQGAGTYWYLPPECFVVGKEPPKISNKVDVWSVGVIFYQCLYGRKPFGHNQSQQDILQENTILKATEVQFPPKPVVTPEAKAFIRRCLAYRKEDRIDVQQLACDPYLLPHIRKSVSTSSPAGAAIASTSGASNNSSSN
T19 sequence (O96017 whole entry): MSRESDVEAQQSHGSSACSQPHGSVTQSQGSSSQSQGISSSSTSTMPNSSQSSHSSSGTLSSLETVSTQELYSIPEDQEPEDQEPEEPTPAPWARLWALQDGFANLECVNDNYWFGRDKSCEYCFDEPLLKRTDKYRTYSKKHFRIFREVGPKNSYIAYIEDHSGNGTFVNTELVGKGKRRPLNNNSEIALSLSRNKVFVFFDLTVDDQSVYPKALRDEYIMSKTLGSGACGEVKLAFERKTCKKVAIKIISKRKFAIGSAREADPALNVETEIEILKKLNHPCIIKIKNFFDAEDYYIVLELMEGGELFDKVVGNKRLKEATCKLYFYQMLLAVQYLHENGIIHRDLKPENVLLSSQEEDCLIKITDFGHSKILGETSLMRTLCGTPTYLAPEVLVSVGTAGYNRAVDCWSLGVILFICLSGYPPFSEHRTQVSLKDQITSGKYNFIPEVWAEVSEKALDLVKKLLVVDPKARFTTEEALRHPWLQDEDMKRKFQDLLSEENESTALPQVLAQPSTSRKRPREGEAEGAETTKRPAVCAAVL
T24 sequence (P09619 33-1106): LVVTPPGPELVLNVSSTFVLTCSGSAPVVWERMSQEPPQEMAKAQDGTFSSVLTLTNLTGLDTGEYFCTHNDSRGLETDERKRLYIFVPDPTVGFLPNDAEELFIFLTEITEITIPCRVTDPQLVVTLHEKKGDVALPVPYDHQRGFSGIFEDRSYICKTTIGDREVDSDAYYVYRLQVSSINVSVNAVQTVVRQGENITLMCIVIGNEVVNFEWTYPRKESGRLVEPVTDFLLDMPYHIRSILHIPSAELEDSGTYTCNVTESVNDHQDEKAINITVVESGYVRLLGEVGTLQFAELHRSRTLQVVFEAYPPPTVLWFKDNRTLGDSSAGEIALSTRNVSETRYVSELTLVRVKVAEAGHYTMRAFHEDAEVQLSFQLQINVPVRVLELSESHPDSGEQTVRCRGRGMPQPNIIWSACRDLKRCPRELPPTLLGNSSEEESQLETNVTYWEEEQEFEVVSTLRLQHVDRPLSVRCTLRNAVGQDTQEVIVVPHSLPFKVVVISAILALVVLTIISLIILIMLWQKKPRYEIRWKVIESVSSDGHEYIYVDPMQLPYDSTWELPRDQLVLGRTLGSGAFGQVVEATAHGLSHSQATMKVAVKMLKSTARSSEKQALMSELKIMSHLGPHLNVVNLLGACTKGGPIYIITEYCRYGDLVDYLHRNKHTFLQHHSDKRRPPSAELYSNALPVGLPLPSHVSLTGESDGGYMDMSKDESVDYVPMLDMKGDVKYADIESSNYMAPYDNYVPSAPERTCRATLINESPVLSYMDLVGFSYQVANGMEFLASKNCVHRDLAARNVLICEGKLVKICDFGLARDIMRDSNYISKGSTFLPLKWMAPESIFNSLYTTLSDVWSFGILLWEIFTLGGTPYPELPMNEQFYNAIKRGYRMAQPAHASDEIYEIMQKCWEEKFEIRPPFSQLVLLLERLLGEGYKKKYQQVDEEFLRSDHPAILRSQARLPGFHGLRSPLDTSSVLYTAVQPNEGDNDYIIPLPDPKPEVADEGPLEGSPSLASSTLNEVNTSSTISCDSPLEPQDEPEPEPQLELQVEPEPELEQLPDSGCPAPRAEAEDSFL
T20 sequence (P57059 whole entry): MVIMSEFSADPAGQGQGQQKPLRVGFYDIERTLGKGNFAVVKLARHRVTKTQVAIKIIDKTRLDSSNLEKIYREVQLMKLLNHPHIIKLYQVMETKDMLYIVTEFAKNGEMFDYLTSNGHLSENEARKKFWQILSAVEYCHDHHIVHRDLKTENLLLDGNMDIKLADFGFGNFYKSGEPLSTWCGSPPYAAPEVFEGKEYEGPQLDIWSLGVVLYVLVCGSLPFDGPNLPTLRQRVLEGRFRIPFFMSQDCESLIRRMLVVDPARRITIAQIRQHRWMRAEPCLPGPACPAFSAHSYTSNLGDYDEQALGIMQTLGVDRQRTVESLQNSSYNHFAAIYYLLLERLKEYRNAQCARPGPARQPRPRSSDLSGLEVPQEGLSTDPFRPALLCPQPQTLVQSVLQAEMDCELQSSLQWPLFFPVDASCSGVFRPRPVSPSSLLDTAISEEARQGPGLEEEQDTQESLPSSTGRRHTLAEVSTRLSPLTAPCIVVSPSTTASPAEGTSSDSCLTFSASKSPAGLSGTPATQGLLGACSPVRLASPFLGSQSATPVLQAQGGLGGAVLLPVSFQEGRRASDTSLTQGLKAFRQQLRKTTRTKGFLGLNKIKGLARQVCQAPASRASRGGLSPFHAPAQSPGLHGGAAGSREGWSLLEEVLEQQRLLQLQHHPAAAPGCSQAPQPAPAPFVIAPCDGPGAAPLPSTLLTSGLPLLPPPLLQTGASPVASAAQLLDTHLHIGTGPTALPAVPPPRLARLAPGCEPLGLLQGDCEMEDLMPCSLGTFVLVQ
T12 sequence (O60674 840-1132 limits assumed): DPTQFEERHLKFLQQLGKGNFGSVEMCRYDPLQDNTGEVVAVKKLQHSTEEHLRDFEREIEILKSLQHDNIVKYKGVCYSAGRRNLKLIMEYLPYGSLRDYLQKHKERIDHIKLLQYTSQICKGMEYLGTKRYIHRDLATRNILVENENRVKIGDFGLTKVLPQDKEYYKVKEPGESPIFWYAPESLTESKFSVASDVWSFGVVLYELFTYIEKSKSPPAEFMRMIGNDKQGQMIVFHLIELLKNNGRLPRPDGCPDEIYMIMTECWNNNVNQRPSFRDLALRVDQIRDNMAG

O=C(O)c1ccc(-c2coc3ncc(-c4ccccc4)cc23)cc1Cl [SGC-CAMKK2-1N (UNC-YL-83)]
remaining binding at 1 µM (WEE1): 84% | remaining binding at 1 µM (AURKA): 74% | remaining binding at 1 µM (LCK): 100% | remaining binding at 1 µM (VPS34): 44% | remaining binding at 1 µM (PHKG2): 68% | remaining binding at 1 µM (CSF1R-autoinhibited): 89% | remaining binding at 1 µM (p38-beta): 100% | remaining binding at 1 µM [1]: 92% | remaining binding at 1 µM (CDK3): 100% | remaining binding at 1 µM [2]: 82% | remaining binding at 1 µM (JNK1): 81% | remaining binding at 1 µM [3]: 80% | remaining binding at 1 µM (CSK): 60% | remaining binding at 1 µM (JNK3): 100%

Cc1cccc(-c2cnc3occ(-c4ccc(C(=O)O)c(C5CCCC5)c4)c3c2)c1 [SGC-CAMKK2-1 (YL-36)]
remaining binding at 1 µM (ERBB3): 86% | remaining binding at 1 µM (PLK4): 100% | remaining binding at 1 µM (TRKB): 100% | remaining binding at 1 µM (PRKD1): 100% | remaining binding at 1 µM (CHEK2): 92% | remaining binding at 1 µM (SIK): 100% | remaining binding at 1 µM (MST3): 100% | remaining binding at 1 µM (S6K1): 100% | remaining binding at 1 µM (FGFR1): 100% | remaining binding at 1 µM (PDGFRB): 100% | remaining binding at 1 µM (ALK(C1156Y)): 100% | remaining binding at 1 µM (AAK1): 98% | remaining binding at 1 µM (NDR2): 100% | remaining binding at 1 µM (GRK4): 100% | remaining binding at 1 µM (HASPIN): 100% | remaining binding at 1 µM (TLK2): 100% | remaining binding at 1 µM (CAMK1D): 94% | remaining binding at 1 µM (HIPK2): 100% | Percent Control (EGFR(L747-T751del,Sins)): 85%
